The target in test [1] is cdMMP-2 (Homo sapiens, UniProt P08253). Put plainly: MMP microfluorometric profiling assay (fluorogenic Mca-peptide substrate). It counts as biochemical. Conditions: for percent inhibition: cdMMP-2, @ 15 (µM). The method, then:
The tested MMP enzymes were prepared more specifically in the laboratories of the applicants, with the exception of MMP-1. MMP-1 from human rheumatoid synovial fibroblasts was purchased from Calbiochem-Novabiochem Corporation, LaJolla. Preparation of the recombinant catalytic domain of human Gelatinase A (cdMMP-2): The catalytic domain of Pro-Gelatinase A was prepared using an E. coli expression system according to the method described by Kröger et al^[19]. The proenzyme was activated with 0.5 mM APMA at 37°C prior to use in the assay. […] Preparation of PMNL-Gelatinase (MMP-9): Latent PMNL-pro-Gelatinase was prepared from human plasma buffy coat as described by Tschesche et al^[21]. PMNL-pro-Gelatinase was activated prior to use by incubation with Trypsin at 37°C for 10 min. Inactivation of Trypsin was accomplished with TKI. […] The overexpressed protein was isolated as inclusion bodies and the renatured protein was purified by affinity chromatography with a hydroxamate inhibitor coupled column as described^[22]. Preparation of the recombinant catalytic domain of human Collagenase-3 (cdMMP-13): Human pro-cdMMP-13 was prepared using an E. coli expression system according to the method described^[23]. The isolated pro-cdMMP-13 was activated prior to use by incubation with 5 mM HgCl2 for 2 h at 37°C.
The enzymatic activity was measured using a modified version of a resonance energy transfer fluorogenic assay as described^[26]. Progress curves were monitored by following the increase in fluorescence at 393 nm (λex = 328 nm), induced by the cleavage of the (7-methoxycoumarin-4-yl)acetyl-Pro-Leu-Gly-Leu-(3-[2,4-dinitro-phenyl]-L-2,3-diamino-propionyl)-Ala-Arg-NH2 (Mca-Pro-Leu-Gly-Leu-Dpa-Ala-Arg-NH2) fluorogenic substrate by MMPs. The fluorescent MCA-group is quenched by resonance energy transfer to the 2,4-dinitrophenyl group. Matrix metalloproteinases cleave this substrate at the Gly-Leu bond. Cleavage results in the loss of energy transfer and a large increase in fluorescence of the MCA group. This substrate is commercially available from Bachem, Switzerland.
Enzyme inhibition assays were carried out in MRB which consisted of 50 mM HEPES/NaOH, pH 7.0, 10 mM CaCl2 and 0,02% (w/v) PEG 8000 at 25°C. MMP microfluorometric profiling assay was done in white U-bottomed 96-well plates (Microfluor 1 White, Dynex, USA) with a final substrate concentration of 6 µM MCA-peptide, approximately 0.3 to 5 nM MMP with variable inhibitor concentrations and 2% DMSO vehicle. From a 1.5 mM stock (100% DMSO) the inhibitors were serially diluted with MRB to 15, 10, 5, 3, 1, 0.6, 0.3, 0.1, 0.05, 0.01 and 0.005 µM final assay concentration. Column 1, rows A through H, contained only DMSO for the "enzyme-only" wells in the assay. After preincubation for 30 min at 25°C the reaction was started by addition of substrate and the plate was read on a SpectraFluor Plus (Tecan, Germany) plate reader with excitation at 330 nm and emission at 405 nm with the gain set to 150. Each measurement was done in triplicate to ensure statistically significant results. The experiment was further controlled for background fluorescence of the substrate, for fluorescence of fully cleaved substrate and for fluorescence quenching or augmentation from solutions containing the test compounds.
Datapoints from eight different MMPs generated on the SpectraFluor Plus were directly visualized on a master Excel spreadsheet. The response of inhibition was determinated for each inhibitor concentration by comparing the amount of hydrolysis (fluorescence units generated over 30 minutes of hydrolysis) of wells containing compound with the "enzyme-only" wells in column 1. With the program GraFit (Erithacus Software Limited) a 4 parameter logistic fit to the dose-response data was used to calculate IC50 values for each compound.

Test [2] has as its target T1, ΔTM-MMP-14 (Homo sapiens, UniProt P50281).
T1 construct: The ectodomain of MMP-14 was expressed in Pichia Pastoris; made in house; host or cells: Pichia pastoris
Described as above. Type of test: biochemical.

We go through 21 compounds from patent publication EP1191024A1, “Thiadiazines and their use as inhibitors of metalloproteinases” (Tschesche, Harald, priority 2000, dated 2002).

Where a name gives a salt, the structure may show the parent alone. Read-outs that look alike come from different tables or passages of the source.

cdMMP-2, sequence (P08253 110-446): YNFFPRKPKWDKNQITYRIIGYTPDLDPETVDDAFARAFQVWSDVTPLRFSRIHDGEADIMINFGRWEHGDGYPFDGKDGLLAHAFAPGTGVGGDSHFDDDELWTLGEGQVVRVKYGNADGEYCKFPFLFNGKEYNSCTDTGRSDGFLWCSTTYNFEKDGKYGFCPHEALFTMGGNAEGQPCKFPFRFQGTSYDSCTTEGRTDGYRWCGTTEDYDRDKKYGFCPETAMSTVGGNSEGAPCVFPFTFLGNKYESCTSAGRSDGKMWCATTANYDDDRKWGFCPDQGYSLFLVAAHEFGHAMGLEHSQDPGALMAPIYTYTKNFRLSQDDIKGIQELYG

Turning to `O=C(CC1NC(=O)NC1=O)NC1=NN=C(c2ccc(N3CCCC3)cc2)CS1` (stereo not shown) [Example 26, 2-(2,5-Dioxo-4-imidazolidinyl)-N-{5-[4-(1-pyrrolidinyl)phenyl]-6H-1,3,4-thiadiazin-2-yl}acetamide], in test [1] (read-out: cdMMP-2 IC50), the IC50 stood at 0.89 µM. The compound further registered a percent inhibition in test [2] (ΔTM-MMP-14, @ 15 (µM)) of 63%^a)@ 15. Consider `CC(C)(C)c1ccc(S(=O)(=O)NCC(=O)NC2=NN=C(c3ccc(Cl)cc3Cl)CS2)cc1` [Example 18, 2-{[(4-tert-Butylphenyl)sulfonyl]amino}-N-[5-(2,4-dichlorophenyl)-6H-1,3,4-thiadiazin-2-yl]acetamide], for which the half-maximal inhibitory concentration (IC50) in test [1] (read-out: cdMMP-2 IC50) was found to be 2.43 µM; in test [2], 0.887 µM. On the same counts, the results for `C[C@@H](NS(=O)(=O)c1ccccc1)C(=O)NC1=NN=C(c2ccc(C#N)cc2)CS1` [Example 1, (2R)-N-[5-(4-Cyanophenyl)-6H-1,3,4-thiadiazine-2-yl]-2-[(phenylsulfonyl)amino]-propanamide] are 0.353 µM and 0.61 µM. In test [1], `C[C@H](NS(=O)(=O)N1CCOCC1)C(=O)NC1=NN=C(c2ccc(Cl)cc2)CS1` [Example 28, (2S)-N-[5-(4-Chlorophenyl)-6H-1,3,4-thiadiazin-2yl-]-2-[(4-morpholinylsulfonyl)amino]propanamide] had an IC50 of 0.662 µM. For `O=C(CC1NC(=O)NC1=O)NC1=NN=C(c2ccc(Br)cc2)CS1` (stereo not shown) [Example 24, N-[5-(4-Bromophenyl)-6H-1,3,4-thiadiazin-2-yl]-2-(2,5-dioxo-4-imidazolidinyl)-acetamide], the IC50 in test [1] (read-out: cdMMP-2 IC50) came to 0.864 µM. On the same count and under the same terms, the same measure for `C[C@H](NS(=O)(=O)c1ccccc1)C(=O)NC1=NN=C(c2ccc([N+](=O)[O-])cc2)CS1` [Example 9, (2S)-N-[5-(4-Nitrophenyl)-6H-1,3,4-thiadiazin-2-yl]-2-[(phenylsulfonyl)amino]-propanamide]: 0.495 µM. In test [1], `C=CCNC1=NN=C(c2ccc(Cl)cc2)CS1` [Example 31, N-Allyl-5-(4-chlorophenyl)-6H-1,3,4-thiadiazin-2-amine hydrobromide] yielded an IC50 of 3.31 µM.

Consider `O=C(CC1NC(=O)NC1=O)NC1=NN=C(c2ccc(Cl)cc2)CS1` (stereo not shown) [Example 23, N-[5-(4-Chlorophenyl)-6H-1,3,4-thiadiazin-2-yl]-2-(2,5-dioxo-4-imidazolidinyl)-acetamide], for which the percent inhibition in test [1] worked out at 67%^a)@ 15. Consider `COc1ccc(S(=O)(=O)NCC(=O)NC2=NN=C(c3ccc(Cl)cc3Cl)CS2)cc1` [Example 19, N-[5-(2,4-Dichlorophenyl)-6H-1,3,4-thiadiazin-2-yl]-2-{[(4-methoxyphenyl)-sulfonyl]amino}acetamide], for which, in test [1] (read-out: cdMMP-2 IC50), the IC50 stood at 1.52 µM. Turning to `C[C@H](NS(=O)(=O)c1ccccc1)C(=O)NC1=NN=C(c2ccc(C#N)cc2)CS1` [Example 3, (2S)-N-[5-(4-Cyanophenyl)-6H-1,3,4-thiadiazin-2-yl]-2-[(phenylsulfonyl)amino]-propanamide], the IC50 in test [1] (read-out: cdMMP-2 IC50) came out at 0.39 µM; in test [2], 0.709 µM. On the same counts, the results for `CC(C)[C@@H](NS(=O)(=O)c1ccccc1)C(=O)NC1=NN=C(c2ccc(Cl)cc2)CS1` [Example 2, (2R)-N-[5-(4-Chlorophenyl)-6H-1,3,4-thiadiazin-2-yl]-3-methyl-2-[(phenylsulfonyl)amino]butanamide] are 1.41 µM and 0.593 µM. The matching figures for `C[C@H](NS(=O)(=O)c1cccnc1)C(=O)NC1=NN=C(c2ccc(Cl)cc2)CS1` [Example 29, (2S)-N-[5-(4-Chlorophenyl)-6H-1,3,4-thiadiazin-2-yl]-2-[(3-pyridylsulfonyl)-amino]propanamide]: 0.354 µM and 0.43 µM. On the same counts, the results for `O=C1C[C@@H](C(=O)NC2=NN=C(c3ccc(Cl)cc3)CS2)NC(=O)N1` [Example 30, (4S)-N-[5-(4-Chlorophenyl)-6H-1,3,4-thiadiazin-2-yl]-2,6-dioxohexahydro-4-pyrimidinecarboxamide] are 0.693 µM and 0.692 µM. Consider `COc1ccc(S(=O)(=O)NCC(=O)NC2=NN=C(c3c(F)c(F)c(F)c(F)c3F)CS2)cc1` [Example 16, 2-{[(4-Methoxyphenyl)sulfonyl]amino}-N-[5-(2,3,4,5,6-pentafluorophenyl)-6H-1,3,4-thiadiazin-2-yl]acetamide], for which, in test [1] (read-out: cdMMP-2 IC50), the IC50 was found to be 3.93 µM. In the case of `C[C@@H](NS(=O)(=O)c1ccccc1)C(=O)NC1=NN=C(c2ccc(F)cc2)CS1` [Example 14, (2R)-N-[5-(4-Fluorophenyl)-6H-1,3,4-thiadiazin-2-yl]-2-[(phenylsulfonyl)amino]-propanamide], the 50% inhibitory concentration (IC50) in test [1] (read-out: cdMMP-2 IC50) was 0.572 µM; in test [2] it was 0.596 µM. In turn, `O=C(CC1NC(=O)NC1=O)NC1=NN=C(c2ccc(C3CCCCC3)cc2)CS1` (stereo not shown) [Example 25, N-[5-(4-Cyclohexylphenyl)-6H-1,3,4-thiadiazin-2-yl]-2-(2,5-dioxo-4-imidazolidinyl)acetamide] registered a percent inhibition in test [1] of 53%^a)@ 15. Consider `COc1ccc(S(=O)(=O)N[C@@H](C)C(=O)NC2=NN=C(c3ccc(C)cc3)CS2)cc1` [Example 17, (2S)-2-{[(4-Methoxyphenyl)sulfonyl]amino}-N-[5-(4-methylphenyl)-6H-1,3,4-thiadiazin-2-yl]propanamide], for which, in test [1] (read-out: cdMMP-2 IC50), the IC50 came to 0.675 µM. `C[C@H](NS(=O)(=O)c1ccccc1)C(=O)NC1=NN=C(c2ccc(Cl)s2)CS1` [Example 10, (2S)-N-[5-(5-Chloro-2-thienyl)-6H-1,3,4-thiadiazin-2-yl]-2-[(phenylsulfonyl)-amino]propanamide]: the IC50 in test [1] (read-out: cdMMP-2 IC50) came out at 3.1 µM; in test [2], 0.357 µM.

Consider `CC(C)[C@H](NS(=O)(=O)c1ccccc1)C(=O)NC1=NN=C(c2ccc(Cl)cc2)CS1` [Example 22, (2S)-N-[5-(4-Chlorophenyl)-6H-1,3,4-thiadiazin-2-yl]-3-methyl-2-[(phenylsulfonyl)amino]butanamide], for which the half-maximal inhibitory concentration (IC50) in test [1] (read-out: cdMMP-2 IC50) came out at 1.46 µM. Same read-out and setting: next, `C[C@H](NS(=O)(=O)c1ccccc1)C(=O)NC1=NN=C(c2ccc(Br)cc2)CS1` [Example 6, (2S)-N-[5-(4-Bromophenyl)-6H-1,3,4-thiadiazin-2-yl]-2-[(phenylsulfonyl)amino]-propanamide]: 0.455 µM.

In turn, `C[C@H](NS(=O)(=O)c1ccccc1)C(=O)NC1=NN=C(c2ccc(C(F)(F)F)cc2)CS1` [Example 4, (2S)-2-[(Phenylsulfonyl)amino]-N-{5-[4-(trifluormethyl)phenyl]-6H-1,3,4-thiadiazin-2-yl}propanamide] registered a percent inhibition in test [1] of 25%^a)@ 15. The same compound yielded an IC50 in test [2] of 0.708 µM.

Usually IC50 stands for the concentration that gives 50% inhibition.
